Publication PMC10572522, “A Designed Analog of an Antimicrobial Peptide, Crabrolin, Exhibits Enhanced Anti-Proliferative and In Vivo Antimicrobial Activity” (International Journal of Molecular Sciences, 2023)
Residues, ends and D or L forms follow the SMILES beside them.

Key:
[1] = tested on: E. faecium (NTCC 12697); test: Antimicrobial susceptibility assay (MIC/MBC); type: cell-based, Enterococcus faecium; settings: for MIC: MHB, 37 °C, 20 h
Experimental: (§1) Six bacteria were tested in this experiment to detect the antimicrobial effects of crabrolin and its derivatives, including S. aureus (NCTC 10788), MRSA (NCTC 12493), E. coli (ATCC 8739), K. pneumoniae (ATCC 43816), E. faecium (NTCC-12697), and P. aeruginosa (ATCC 9027). The tested bacteria were cultured in Mueller Hinton broth medium (MHB) with norfloxacin (20 mg/L) as a positive control. All bacteria were incubated at 37 °C overnight and diluted to 5 × 10^5 CFU/mL before treating with the peptides. Stock solutions of 51,200 µM peptides were prepared in phosphate-buffered saline (PBS) and further diluted by a factor of two to 100 µM. Next, 1 µL of each peptide solution was mixed with 99 µL of bacterial subculture in a 96-well plate, and the plate was incubated at 37 °C for 20 h. After culturing, the absorbance of each well in the 96-well plate was analyzed at 550 nm using a Synergy HT plate reader (BioliseBioTek, Winooski, VT, USA). […] Starting with the MIC value, 10 µL of the solution from each well was dripped onto Mueller Hinton agar (MHA) plates. The plates were cultured at 37 °C for 20 h. After culturing, the lowest concentration with no colony growth was regarded as the MBC.

[2] = tested on: E. faecium (NTCC12697) biofilm; type: cell-based, Enterococcus faecium; settings: for MBIC: biofilm inhibitory rate more than 90%; for MBEC: eradication rate greater than 99.9%
Experimental: (§2) To measure the antibiofilm activity of crabrolin and its derivatives, four drug-resistant biofilm-forming strains, MRSA (NCTC 12493), K. pneumoniae (ATCC 43816), E. faecium (NTCC-12697), and P. aeruginosa (ATCC 9027), were used in this assay. Tryptic soy broth (TSB) (for the Gram-positive bacteria) and Luria–Bertani broth (LB) (for the Gram-negative bacteria) were used to culture the bacteria.
(§3) The mass of the biofilm in this assay was detected by the crystal violet staining method. First, 100 μL of 5 × 10^5 CFU/mL bacteria was incubated with 1 μL of different peptide solutions (ranging from 51200 μM to 100 μM) for 24 h at 37 °C with 200 rpm shaking. After the biofilm formation, 100 μL of PBS was used to rinse the biofilm twice. Next, 100 µL of methanol was added to fix the biofilm, and the biofilm was then dried. Thereafter, 100 μL of 0.1% crystal violet was added and left to stain for 15 min, and then the excess crystal violet was further rinsed by PBS. After the plate had air-dried, 30% glacial acetic acid was added to each well of the plate, and the plate was shaken for 15 min before the optical density (OD) value was measured at 595 nm using a Synergy HT plate reader. The MBIC value refers to the minimum concentration at which the biofilm inhibitory rate was more than 90%.
(§4) Different from measuring the MBIC value, to determine the MBEC value, 100 μL of the bacteria was first added to 96-well plates. After the biofilm was formed, the biofilm was rinsed with PBS twice to remove the planktonic cells, and then different concentrations of the drugs were added to the biofilm (the same as the MBIC assay). The mixture was incubated at 37 °C with shaking at 200 rpm. After 24 h of incubation, the mass of the biofilm was measured in the same way as the MBIC value, and the minimum concentration at which the eradication rate was greater than 99.9% was considered to be the MBEC value.

[3] = tested on: MRSA (NCTC 12493) biofilm; type: cell-based, methicillin-resistant Staphylococcus aureus; settings: for MBIC: biofilm inhibitory rate more than 90%; for MBEC: eradication rate greater than 99.9%
Experimental: as §2, §3, §4

[4] = tested on: E. coli (ATCC 8739); test: Antimicrobial susceptibility assay (MIC/MBC); type: cell-based, Escherichia coli; settings: for MIC: MHB, 37 °C, 20 h
Experimental: as §1

[5] = tested on: horse erythrocytes; test: Hemolysis assay; type: cell-based
Experimental: (§5) According to the procedures described in detail in a previous study, the debris and impurities of the erythrocytes were washed with PBS in advance to yield 2% of the erythrocyte suspension, and the drug concentration was diluted from 1024 µM to 2 µM with PBS [53]. The same amounts of the drug and the erythrocyte suspension were mixed and cultured at 37 °C for 2 h; 0.1% Triton X-100 (Sigma-Aldrich, St. Louis, MO, USA) was prepared as a positive control, and PBS was prepared as a negative control. After the incubation, the supernatant was transferred to a 96-well plate and then detected using a Synergy HT plate reader at 570 nm.

[6] = tested on: K. pneumoniae (ATCC 43816); test: Antimicrobial susceptibility assay (MIC/MBC); type: cell-based, Klebsiella pneumoniae; settings: for MIC: MHB, 37 °C, 20 h
Experimental: as §1

[7] = tested on: S. aureus (NCTC 10788); test: Antimicrobial susceptibility assay (MIC/MBC); type: cell-based, Staphylococcus aureus; settings: for MIC: MHB, 37 °C, 20 h
Experimental: as §1

[8] = tested on: P. aeruginosa (ATCC 9027) biofilm; type: cell-based, Pseudomonas aeruginosa; settings: for MBIC: biofilm inhibitory rate more than 90%; for MBEC: eradication rate greater than 99.9%
Experimental: as §2, §3, §4

[9] = tested on: human prostate carcinoma cell line PC-3; test: Anti-proliferative assay (MTT); type: cell-based; settings: PC3, MTT, 24 h
Experimental: (§6) The human non-small-cell lung cancer line, H838, the human prostate carcinoma cell line, PC-3, the human glioblastoma astrocytoma, U251MG, the human breast cancer cell line, MCF-7, the human colorectal carcinoma cell line, HCT116, and the human keratinocyte cell line, HaCaT, were used to detect the anti-proliferative effects of the crabrolin and its derivatives in vitro. A total of 8000 cells were seeded in each well of a 96-well plate. After the cells had adhered to the wall, the cells were starved for 4 h. After the starvation, the cells were incubated with different concentrations of the drugs, ranging from 100 µM to 1 nM, for 24 h, with 0.1% Triton X-100 used as a positive control. Next, 10 µL of MTT (3-(4,5-dimethylthiazol-2-yl)-2,5-diphenyltetrazolium bromide) solution (5 mg/mL) was added to each well of the 96-well plate. After 2 h of incubation, 100 μL of DMSO-superseded medium was added to each well to dissolve the formazan crystals. Finally, the absorbance was detected using a Synergy HT plate reader at 570 nm.

[10] = tested on: human non-small-cell lung cancer line H838; test: Anti-proliferative assay (MTT); type: cell-based; settings: 24 h
Experimental: as §6

[11] = tested on: human glioblastoma astrocytoma U251MG; test: Anti-proliferative assay (MTT); type: cell-based; settings: 24 h
Experimental: as §6

[12] = tested on: human breast cancer cell line MCF-7; test: Anti-proliferative assay (MTT); type: cell-based; settings: MCF-7, MTT, 24 h
Experimental: as §6

[13] = tested on: human keratinocyte cell line HaCaT; test: Anti-proliferative assay (MTT); type: cell-based; settings: HaCaT (normal keratinocytes), 24 h
Experimental: as §6

[14] = tested on: human colorectal carcinoma cell line HCT-116; test: Anti-proliferative assay (MTT); type: cell-based; settings: HCT-116, MTT, 24 h
Experimental: as §6

[15] = tested on: MRSA (NCTC 12493); test: Antimicrobial susceptibility assay (MIC/MBC); type: cell-based, methicillin-resistant Staphylococcus aureus; settings: for MIC: MHB, 37 °C, 20 h
Experimental: as §1

[16] = tested on: P. aeruginosa (ATCC 9027); test: Antimicrobial susceptibility assay (MIC/MBC); type: cell-based, Pseudomonas aeruginosa; settings: for MIC: MHB, 37 °C, 20 h
Experimental: as §1

[17] = tested on: K. pneumoniae (ATCC 43816) biofilm; type: cell-based, Klebsiella pneumoniae; settings: for MBIC: biofilm inhibitory rate more than 90%; for MBEC: eradication rate greater than 99.9%
Experimental: as §2, §3, §4

[18] = Hemolysis assay; type: cell-based, horse; settings: horse, erythrocytes (2% suspension); at the peptide's maximum MIC; relative to Triton X-100; read-out: Hemolysis under the Maximum MIC
Experimental: as §5

Row | Compound | MBC [1] [µM] | MIC [1] [µM] | MBIC [2] | MBEC [2] | MBIC [3] | MBEC [3] | MBC [4] [µM] | MIC [4] [µM] | MBC [6] [µM] | MIC [6] [µM] | MBC [7] [µM] | MIC [7] [µM] | MBIC [8] | MBEC [8] | IC50 [9] [µM] | IC50 [10] [µM] | IC50 [11] [µM] | IC50 [12] [µM] | IC50 [13] [µM] | IC50 [14] [µM] | also measured
1 | CC[C@H](C)[C@H](NC(=O)[C@H](CC(C)C)NC(=O)[C@@H]1CCCN1C(=O)[C@H](CC(C)C)NC(=O)[C@@H](N)Cc1ccccc1)C(=O)N[C@@H](CC(C)C)C(=O)N[C@@H](CCCNC(=N)N)C(=O)N[C@@H](CCCCN)C(=O)N[C@@H](CCCNC(=N)N)C(=O)N[C@H](C(=O)N[C@H](C(=O)N[C@@H](C)C(=O)N[C@@H](CC(C)C)C(N)=O)[C@@H](C)O)C(C)C [Crabrolin-9R, FLPLILRKRVTAL-NH2] (H-FLPLILRKRVTAL-NH2) | > 512 | > 512 | >512/>512 µM | >512/>512 µM | >512/>512 µM | >512/>512 µM | > 512 | 256 | > 512 | > 512 | > 512 | 256 | >512/>512 µM | >512/>512 µM | 354 | 2740 | 1140 | 6340 | 5850 | 1880 | Hemolytic activity (in words) ([5]; 1 to 512 μM): lost its hemolytic activity; MBC [15]: > 512 µM; MIC [15]: > 512 µM; MBC [16]: > 512 µM; MIC [16]: > 512 µM; MBIC [17]: >512/>512 µM; MBEC [17]: >512/>512 µM
2 | CC[C@H](C)[C@H](NC(=O)[C@H](CCCNC(=N)N)NC(=O)[C@H](CCCNC(=N)N)NC(=O)[C@H](CC(C)C)NC(=O)[C@@H](N)CCCNC(=N)N)C(=O)N[C@@H](CC(C)C)C(=O)N[C@@H](CCCNC(=N)N)C(=O)N[C@@H](CCCCN)C(=O)N[C@H](C(=O)N[C@H](C(=O)N[C@@H](CCCNC(=N)N)C(=O)N[C@@H](CCCNC(=N)N)C(=O)N[C@@H](CC(C)C)C(N)=O)C(C)C)[C@@H](C)CC [Crabrolin-PR, RLRRILRKIVRRL-NH2] (H-RLRRILRKIVRRL-NH2) | 16 | 8 | 32 µM | > 512 µM | 8 µM | 512 µM | 8 | 2 | 16 | 8 | 4 | 2 | 8 µM | > 512 µM | 22.4 | 32.3 | 17.7 | 12.3 | 29.5 | 16.3 | HC10 (10% hemolytic concentration) ([5]; erythrocytes, 37 °C, 2 h): 5019 µM; Hemolytic activity at the measured maximum concentration ([5]; maximum concentration (range 1 to 512 μM)): less than 1%; hemolysis at 2 h [18]: 3.09%; MBC [15]: 8 µM; MIC [15]: 4 µM; MBC [16]: 16 µM; MIC [16]: 4 µM; MBIC [17]: 8 µM; MBEC [17]: > 512 µM
